According to ChEMBL document CHEMBL5137057, “Small Carbohydrate Derivatives as Potent Antibiofilm Agents” (J Med Chem, 2022):
Converted amounts (≈) assume the structure as drawn.

How the values were obtained:
Staphylococcus aureus = test: Antibiofilm activity against Staphylococcus aureus USA300 assessed as inhibition of biofilm formation at 256 ug/ml measured after 24 hrs by crystal violet staining based assay relative to control; type: functional; set-up: scale not given: the % may be the effect or the level left; settings: dose 256 µg/ml
Pseudomonas aeruginosa [1] = test: Antibacterial activity against Pseudomonas aeruginosa MTCC 2488 biofilm at 410 ug/ml incubated for 24 hrs by congo red binding assay; type: functional; settings: dose 410 µg/ml
Porphyromonas gingivalis = test: Antibacterial activity Porphyromonas gingivalis ATCC 33277 assessed as bacterial growth inhibition incubated for 24 hrs by broth dilution assay; type: functional
Pseudomonas aeruginosa [2] = test: Potentiation of ciprofloxacin-induced antibacterial activity against Pseudomonas aeruginosa MTCC 2488 biofilm at 410 ug/ml incubated for 24 hrs pretreated with compound followed by ciprofloxacin addition by congo red binding assay; type: functional; settings: dose 410 µg/ml
Pseudomonas aeruginosa [3] = test: Potentiation of tetracyclin-induced antibacterial activity against Pseudomonas aeruginosa MTCC 2488 biofilm at 410 ug/ml incubated for 24 hrs pretreated with compound followed by tetracyclin addition by congo red binding assay; type: functional; settings: dose 410 µg/ml
[4] = test system: Aggregatibacter actinomycetemcomitans; test: Antibacterial activity Actinobacillus actinomycetemcomitans ATCC 700685 assessed as bacterial growth inhibition incubated for 24 hrs by broth dilution assay; type: functional
[5] = Binding affinity to Lactobacillus reuteri Glucosyltransferase assessed as dissociation constant by SPR analysis; set-up: species or system Limosilactobacillus reuteri
[6] = Downregulation of c-di-GMP level in Pseudomonas aeruginosa PA14 planktonic cells harboring wspF gene mutation at 10 uM incubated for 24 hrs by HPLC method; type: functional
Pseudomonas aeruginosa [7] = test: Downregulation of c-di-GMP level in Pseudomonas aeruginosa PA14 harboring wspF gene mutation biofilm at 10 uM incubated for 24 hrs by HPLC method; type: functional
Lectin A = Lectin A (Photorhabdus laumondii subsp. laumondii, UniProt Q7N561); test: Inhibition of Photorhabdus luminescens LecA expressed in Escherichia coli BL21(DE3) cells by fluorescence based analysis
[8] = Antibiofilm activity against Pseudomonas aeruginosa PA14 cocultured with Staphylococcus aureus ATCC 6538 assessed as inhibition of biofilm formation incubated for 24 hrs by crystal violet staining based microtiter plate method relative to control; type: functional; set-up: scale not given: the % may be the effect or the level left
[9] = Binding affinity to C-terminal 6His-tagged Escherichia coli UTI89 FmlH (1 to 160 residues) expressed in Escherichia coli C600 expression system assessed as dissociation constant by biolayer interferometry assay
Streptococcus mutans [10] = test: Prevention of Streptococcus mutans adherence at 0.1 mg/ml relative to control; type: functional
Streptococcus mutans [11] = test: Prevention of Streptococcus mutans CLSM 001 adherence to sucrose-dependent glass surface at 1 to 2 mg/ml relative to control; type: functional; settings: dose 1-2 mg/ml
Streptococcus mutans [12] = test: Antibiofilm activity against Streptococcus mutans ATCC 2517 assessed as inhibition of biofilm formation at 128 ug/ml measured after 16 hrs by crystal violet staining based assay relative to control; type: functional; set-up: scale not given: the % may be the effect or the level left; settings: dose 128 µg/ml
Sortase A = Sortase A (Streptococcus mutans, UniProt Q8CM62); test: Inhibition of Streptococcus mutans ATCC 2517 Sortase A protease expressed in Escherichia coli BL21 expression system using Abz-LPATG-Dap(Dnp)-NH2 as substrate incubated for 1 hrs by FRET assay
[13] = target: T1, PA-I galactophilic lectin (Pseudomonas aeruginosa (strain ATCC 15692 / PAO1 / 1C / PRS 101 / LMG12228), UniProt Q05097); test: Inhibition of FITC-labelled Pseudomonas aeruginosa LecA
T1 sequence (Q05097 whole entry): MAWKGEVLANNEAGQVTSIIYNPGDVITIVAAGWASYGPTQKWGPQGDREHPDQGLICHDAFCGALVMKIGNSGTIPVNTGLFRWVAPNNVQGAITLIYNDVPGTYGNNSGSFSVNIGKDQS

Sortase A, sequence (Q8CM62 whole entry): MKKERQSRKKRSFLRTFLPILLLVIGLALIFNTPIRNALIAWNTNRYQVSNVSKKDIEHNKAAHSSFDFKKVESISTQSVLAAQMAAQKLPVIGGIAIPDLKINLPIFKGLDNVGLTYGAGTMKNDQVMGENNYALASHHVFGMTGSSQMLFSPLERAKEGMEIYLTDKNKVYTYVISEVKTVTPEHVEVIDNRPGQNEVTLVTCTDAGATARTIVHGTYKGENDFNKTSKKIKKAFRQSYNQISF
Lectin A, sequence (Q7N561 whole entry): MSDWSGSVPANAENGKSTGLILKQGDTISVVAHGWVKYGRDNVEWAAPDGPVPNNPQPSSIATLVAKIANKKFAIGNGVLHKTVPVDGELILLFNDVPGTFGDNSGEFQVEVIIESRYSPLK

O=c1cc(-c2ccc(O)cc2)oc2cc(O)c([C@@H]3O[C@H](CO)[C@@H](O)[C@H](O)[C@H]3O)c(O)c12 [ISOVITEXIN]
Activity (Staphylococcus aureus): 61%

C[C@@H]1O[C@@H](O[C@H]2[C@H](Oc3cc(O)c4c(c3)O[C@H](c3ccc(O)cc3)CC4=O)O[C@H](CO)[C@@H](O)[C@@H]2O)[C@H](O)[C@H](O)[C@H]1O [NARINGIN]
Activity (Pseudomonas aeruginosa [1]): 49.5% | MIC50 (Porphyromonas gingivalis): 9800 µg/mL (≈ 16.9 mM) | Activity (Pseudomonas aeruginosa [2]): 89.35% | Activity (Pseudomonas aeruginosa [3]): 73.76% | MIC50 [4]: 9800 µg/mL (≈ 16.9 mM)

C[C@H]1[C@H](Oc2ccc(/C=N/NC(=O)C3CCN(C(=O)OC(C)(C)C)CC3)cc2)O[C@H](CO)[C@@H](O)[C@@H]1O
Kd [5]: 1600 µM

OC[C@H]1O[C@H](OC[C@H]2O[C@H](O[C@]3(CO)O[C@H](CO)[C@@H](O)[C@@H]3O)[C@H](O)[C@@H](O)[C@@H]2O)[C@H](O)[C@@H](O)[C@H]1O [RAFFINOSE]
Activity [6]: 47% | Activity (Pseudomonas aeruginosa [7]): 59% | IC50 (Lectin A): 110 µM | Activity [8]: 23%

O=C(O)C[C@H]1[C@@H](Oc2ccccc2[N+](=O)[O-])O[C@H](CO)[C@H](O)[C@@H]1O
Kd [9]: 10.6 µM

COc1cc(-c2[o+]c3cc(O[C@@H]4O[C@H](CO)[C@@H](O)[C@H](O)[C@H]4O)cc(O)c3cc2O[C@@H]2O[C@H](CO)[C@@H](O)[C@H](O)[C@H]2O)cc(OC)c1O
Activity (Streptococcus mutans [10]): 60%

C[C@H]1[C@H](Oc2ccc(/C=N/NC(=O)COc3ccccc3Cl)cc2)O[C@H](CO)[C@@H](O)[C@@H]1O
Kd [5]: 400 µM

O=c1c(O[C@@H]2OC[C@H](O)[C@H](O)[C@H]2O)c(-c2ccc(O)c(O)c2)oc2cc(O)cc(O)c12 [GUAJAVERIN]
Activity (Streptococcus mutans [11]): 83.7%

C[C@H]1O[C@@H](O[C@H]2C(=O)c3c(O)cc(O)cc3O[C@@H]2c2ccc(O)c(O)c2)[C@H](O)[C@H](O)[C@H]1O
Activity (Streptococcus mutans [12]): 70% | IC50 (Sortase A): 16.7 µM

OC[C@H]1O[C@@H](OCCCc2cn(CCn3cc([C@@H]4O[C@H](CO)[C@@H](n5cc([C@@H]6O[C@H](CO)[C@@H](n7cc(CCCO[C@@H]8O[C@H](CO)[C@H](O)[C@H](O)[C@H]8O)nn7)[C@H](O)[C@H]6O)nn5)[C@H](O)[C@H]4O)nn3)nn2)[C@H](O)[C@@H](O)[C@H]1O
IC50 [13]: 0.22 µM
